Our source for the IC50 values is paper PMC6272605, “Development and Validation of a Docking-Based Virtual Screening Platform for the Identification of New Lactate Dehydrogenase Inhibitors” (Molecules, 2015).

Each structure is given as a SMILES string. Bounds are passed on as bounds.

The subject of one experiment is LDH.
Assay: not given
Particulars: Table S1, active compounds included in the enriched dataset; LDH inhibitors binding the open conformation in the presence of NADH; cited from earlier work. Further details: method as in earlier work.
Regarding `NCC(O)c1ccccc1` (centres unmarked) [Compound 8], the IC50 is 4 µM.
On to `COC(=O)c1ccc(NCCO)cc1` [Compound 6], for which the IC50 was 0.65 µM.
In the case of `Cc1nc2ccc(NC(=O)CCNC(=O)CCCc3ccc(CC(C(=O)O)C(=O)O)cc3)cc2s1` [Compound 2], the IC50 is 12.1 µM.
As for `Nc1ccc(C(=O)O)cc1` [Compound 4], the IC50 was 0.75 µM.
Take `C[C@@H](Nc1nc(-c2cc(C(=O)O)ccc2Cl)cnc1N)c1ccccc1` [Compound 3]: the half-maximal inhibitory concentration (IC50) was 0.48 µM.
For the compound `O=C1NCC(c2ccccc2)O1` (centres unmarked) [Compound 9], the IC50 was 14 µM.
On to `COC(=O)c1ccc(N)cc1` [Compound 5], for which the IC50 is 0.71 µM.
On to `COC(=O)c1ccc(NS(=O)(=O)c2ccc(C)cc2)cc1` [Compound 7], for which the IC50 was 7.4 µM.
`CC(C)(C)OC(=O)CN1CC(c2ccccc2)OC1=O` (centres unmarked) [Compound 10]: the IC50 was 10 µM.

The next experiment addresses T1, purified human lactate dehydrogenase isoform 5 (hLDH5) (Homo sapiens, UniProt P00338).
T1 construct: purchased Lee Biosolution, Inc., St. Louis, MO, USA
Nature of the experiment: hLDH5 inhibition assay (pyruvate→lactate, NADH fluorescence). Format: biochemical. Particulars: 200 μM pyruvate, 40 μM NADH, phosphate buffer pH 7.4, 15 min incubation. As to the method: LDH assays: The LDH inhibition properties of the selected compounds were evaluated against purified human lactate dehydrogenase isoform 5 (Lee Biosolution, Inc., St. Louis, MO, USA). The “forward” direction (pyruvate→lactate) of the lactate dehydrogenase reaction was conducted, and the kinetic parameters were measured by fluorescence (emission wavelength at 460 nm, excitation wavelength at 340 nm) to monitor the amount of consumed NADH. Assays were carried out in wells containing 200 μL of a reagent solution dissolved in 100 mM phosphate buffer (pH = 7.4). For the IC50 calculations of the compounds, seven different concentrations (in duplicate for each concentration) of the isolated compounds were used to produce the concentration-response curve. All of the compounds were tested in the presence of 200 μM pyruvate and 40 μM NADH. Any background fluorescence likelihood of the tested samples, or NADH fluorescence quenching, was subtracted. In addition to the sample test wells, maximum and minimum controls were also included in each plate. After 15 min of incubation, the final measurements were carried out by using a Victor X3 Microplates Reader (PerkinElmer®). IC50 values were produced using GraphPad Prism software.
The compound `Cc1ccc(C(N)C(=O)O)cc1` (centres unmarked) [VS10] gave a 50% inhibitory concentration (IC50) above 500 µM.
On the same count and under the same terms, the value for `COC(=O)C(NC(=O)c1cc([N+](=O)[O-])cc([N+](=O)[O-])c1)c1ccccc1` (centres unmarked) [VS8] was 269 ± 58.1 µM; that for `O=C(O)c1ccc(NCCO)cc1` [VS1, 4-((2-Hydroxyethyl)amino)benzoic acid] was above 500 µM; that for `O=C(O)CCCC(=O)Nc1ccccc1` [VS4] was above 500 µM.
Consider `O=C(O)c1cc2c(C(F)(F)F)cc(-c3ccccc3)cc2n1O` [NHI-1], for which the IC50 amounted to 51.7 ± 4.2 µM.
The same measure, in the same setting: the value for `O=C(O)CCC(=O)c1ccc(F)cc1` [VS7] was above 500 µM.
`O=C(O)CN1CC(c2ccccc2)OC1=O` (centres unmarked) [VS3, 2-(2-Oxo-5-phenyloxazolidin-3-yl)acetic acid] showed an IC50 above 500 µM.
Same read-out and setting: the value for `Cc1ccc(C)c(C(O)C(=O)O)c1` (centres unmarked) [VS5] was above 500 µM.
Compound `CC(C)C(NC(=O)OCc1ccccc1)C(=O)Nc1ccccc1` (centres unmarked) [VS6] gave an IC50 of 246 ± 10.8 µM.
`Cc1ccc(S(=O)(=O)Nc2ccc(C(=O)O)cc2)cc1` [VS2, 4-(4-Methylphenylsulfonamido)benzoic acid] registered a half-inhibitory concentration (IC50) above 500 µM.
Same read-out and setting: next, `O=c1cc2oc(O)c3cc(O)c(O)c(O)c3c-2oc1=O` [galloflavin]: 91.7 ± 10.7 µM.
